The text below walks through data of patent US20050276766A1, “Methods and compositions for increasing skin remodeling” (Skin Biology, Inc., priority 2003, published 2005).

This assay has as its system scar formation after surgical incisions. Put plainly: Scar formation after surgical incisions in mice, cream applied 24 hours after surgery. The class given is in vivo, Swiss-Webster mice. The settings on record: rated from 0 (little or no scarring) to 4 (maximum observed scarring); cream at pH 6.5 applied 24 hours after 1.25 cm surgical incision; 15 mice. As for the experimental part: This Example describes the use of a pastes prepared with the complexes of various copper peptides or copper complexes of amino acids and combinations of copper peptides or copper complexes of amino acids and salicylic acid to reduce scarring after surgery in animals.
Surgical incisions (1.25 cm) were made on the backs of anesthetized, 35 gram, Swiss-Webster mice. To allow normal scar development, there was no treatment after surgery. But 24 hours after surgery, the scars were covered with a cream containing either copper peptide alone or in combination with salicylic acid. Control wounds were untreated.
For comparison, the amount of scar formation was rated from 0 (little or no scarring) to 4 (maximum observed scarring) after seven days.
Table 1: Effect of cream at pH 6.5 with either peptide-copper complex or amino acid-copper complex or the combination of peptide copper/salicylic acid combination or amino acid copper/salicylic acid combination on scar formation

Turning to Gly-His-Lys-Copper(II), the “Scar Formation score after 7 days” value amounted to 2.7 ± 0.6.
